Measurements as given in patent US20240269120A1, “Method for Treating an Autoimmune and Inflammatory Disease” (Cellestia Biotech AG, priority 2021, published 2024).

What was measured:
[1] = tested on: NSG mice injected with human PBMCs (GvHD); assay: Humanized GvHD mouse model, ex vivo pre-treated PBMCs plus in vivo treatment; set-up: GvHD clinical score: Body weight loss (D59) / GvHD clinical score: Paleness (D59) / GvHD clinical score: Posture (D59) / GvHD clinical score: Skin integrity (day 45) / GvHD clinical score: Activity score / GvHD clinical score: Fur texture (day 45): scale not given here; details: for GvHD clinical score: Body weight loss (D59): label = ex vivo PBMC treatment (7 hrs)/in vivo treatment (3 days), DMSO/Vehicle 2.0; for GvHD clinical score: Paleness (D59) / GvHD clinical score: Activity score / GvHD clinical score: Skin integrity (day 45) / GvHD clinical score: Posture (D59) / GvHD clinical score: Fur texture (day 45) / Cumulative GvHD score: label = ex vivo PBMC treatment/in vivo treatment; for GvHD clinical score: Paleness (D59): DMSO/Vehicle 0.9; for GvHD clinical score: Activity score: DMSO/Vehicle 1.0; for GvHD clinical score: Skin integrity (day 45): DMSO/Vehicle 1.25; for GvHD clinical score: Posture (D59): DMSO/Vehicle 1.3; for GvHD clinical score: Fur texture (day 45): DMSO/Vehicle 1.35; for Cumulative GvHD score: sum of individual scores, DMSO/Vehicle 7.8
Method: Humanized GvHD mouse model: 6-8 weeks old NSG mice were intraperitoneally injected with 10 million human peripheral blood mononuclear cells (PBMCs) as below:
A cumulative GvHD clinical score was calculated by addition of scores for individual parameters (e.g. cumulative score=BWL+posture+activity+fur texture+skin integrity+paleness).
Ex-vivo pre-treatment of PBMCs and in-vivo treatment of mice: Human PBMCs were ex-vivo treated with either DMSO or 6-(4-tert-butylphenoxy)pyridin-3-amine and then intraperitoneally injected into NSG mice. Mice were in vivo treated with different compounds as below: • i. DMSO ex vivo hPBMCs treatment (7 hrs), plus vehicle in vivo treatment • ii. DMSO ex vivo hPBMCs treatment (7 hrs), plus 6-(4-tert-butylphenoxy)pyridin-3-amine in vivo treatment for 3 days • iii. 6-(4-tert-butylphenoxy)pyridin-3-amine ex vivo hPBMCs treatment (7 hrs), plus 6-(4-tert-butylphenoxy)pyridin-3-amine in vivo treatment for 3 days • iv. DMSO ex vivo PBMCs treatment (7 hrs) plus Ruxolitinib in vivo treatment for 3 days • v. 6-(4-tert-butylphenoxy)pyridin-3-amine ex vivo hPBMCs treatment (7 hrs), plus Ruxolitinib in vivo treatment for 3 days
(§1) Following PBMC injections, mice were treated with vehicle or 6-(4-tert-butylphenoxy)pyridin-3-amine or Ruxolitinib starting at day 0. Mice were monitored from 60-85 days for symptoms of GvHD and scored according to a standard clinical scoring system for GvHD (Naserian et al., 2018) (see table 1) and a cumulative clinical score was obtained by addition of clinical score for individual parameters. A maximum score of 6 is measured when reaching endpoint. Cell proliferation assay: The effect of compounds on T cell proliferation was quantified using Cell trace violet (CTV). PBMCs/splenocytes were incubated with CTV for 20 minutes at 37° C. Cells were washed twice with RPMI complete medium. CTV labelled cells were stimulated with anti-CD3 and anti-CD28 antibodies and treated with control or compounds and cultured at 37° C. for 96 hours. The cell division index was measured by flow cytometry.

IFNG = assay: ELISA of supernatant from activated human PBMC cultures: IFNG; assay type: cell-based; details: control 0%
Method: (§2) Human PBMCs and mouse splenocyte in vitro stimulation and treatment: Human peripheral blood mononuclear cells (PBMCs) and mouse splenocytes from donors were stimulated in vitro with anti-CD3 and anti-CD28 antibodies. The stimulated cells were simultaneously treated with compounds for 96 hours. The T cells were profiled for different cell surface and intracellular markers and proliferation by flow cytometry.
(§3) ELISA assay: Supernatant from activated human PBMC cultures described above was separated from cells at the end of culture time. Key cytokines (IL-6, IFN-γ, IL-17) were quantified using sandwich ELISA reagents set (Diaclone) following manufacturer's instruction manual.

activated CD8 T cells = assay: Cell proliferation assay (Cell trace violet), activated CD8 T cells; assay type: cell-based; details: control 0%
Method: as §1
(§4) Flow cytometry analysis: Flow cytometry analysis was performed to quantify cell surface and intracellular markers expression and measure cell division index.

activated CD4 T cells = assay: Cell proliferation assay (Cell trace violet), activated CD4 T cells; assay type: cell-based; details: control 0%
Method: as §1, §4

IL-6 = assay: ELISA of supernatant from activated human PBMC cultures: IL-6; assay type: cell-based; details: control 0%
Method: as §2, §3

IL-17 = assay: ELISA of supernatant from activated human PBMC cultures: IL-17; assay type: cell-based; details: control 0%
Method: as §2, §3

Treg cells = assay: Treg expansion in activated human PBMC cultures (anti-CD3/anti-CD28, flow cytometry); assay type: cell-based; details: anti-CD3 and anti-CD28, 96 hours, control 0%
Method: as §2, §4
Viability staining: Cells were transferred into a 96 well conical bottom plate and washed with serum free PBS1×. Cells were incubated with Zombie NIR (Biolegend #423105)+FC block ([…]) for 20 minutes at 4° C. Cells were washed with staining medium (SM) (1×HBSS, 2.5 mM EDTA, 2% NBS
Cell surface marker staining: Cells were stained with antibodies against cell surface markers (CD3, CD4, CD8, CD25, Biolegend or ThermoFisher) for 20 minutes at 4° C. Cells were washed with SM before continuing with nuclear staining.
FOXP3 nuclear staining: Cells were fixed and permeabilized with Foxp3 Transcription Factor Staining Buffer Set (ThermoFisher #00-5523) for 20 minutes at room temperature. […] Results are finally analysed with the software FlowJo v.10.7.1.

[2] = tested on: irradiated Balb/c mice transplanted with TCD-BM + splenocytes from C57Bl6 mice (GvHD); assay: Allogeneic bone marrow transplant GvHD model; assay type: in vivo, mouse; details: allo-bone marrow transplant, compared with vehicle
Method: Allogeneic Bone marrow transplant: Recipient Balb/c mice were irradiated twice 3.75Gy (T=0 and T=4 h) in an X-ray source irradiator before transplantation at T=8 h. Treatment with antibiotics (Nopil) and analgesic (Dafalgan) was supplemented to drinking water 4 days before injection. Irradiated recipient Balb/c mice were transplanted with 5 million T cell depleted bone marrow+1 million splenocytes. Allogeneic recipient animals were treated with vehicle or 6-(4-tert-butylphenoxy)pyridin-3-amine subcutaneously at 20 mg/kg for two days immediately after allo-BM transplant, given a 10 days treatment holiday to recover body weight loss due to whole body irradiation and then treatment continued at 20 mg/kg. […] Animals were monitored for symptoms of GvHD development (severe body weight loss, alopecia and diarrhea.
Graft vs host disease (GvHD) is an example of alloimmune disease that develops following allo-hematopoetic stem cell transplant (allo-HSCT) in humans. The activity of 6-(4-tert-butylphenoxy)pyridin-3-amine and a calcineurin inhibitor Cyclosprin A was investigated in a mouse model of GvHD following allo-bone marrow transplant. In this model, T cell depleted bone marrow cells (TCD-BM)+splenocytes from C57Bl6 mice were transplanted into irradiated Balb/c mice.

Row | Molecule | GvHD clinical score: Body weight loss (D59) [1] | GvHD clinical score: Paleness (D59) [1] | GvHD clinical score: Activity score [1] | GvHD clinical score: Skin integrity (day 45) [1] | GvHD clinical score: Posture (D59) [1] | GvHD clinical score: Fur texture (day 45) [1] | Cumulative GvHD score [1] | Percentage downregulation of IFNG (IFNG) | Percentage inhibition of CD8 T cells (proliferation) (activated CD8 T cells) | Percentage inhibition of CD4 T cells (proliferation) (activated CD4 T cells) | Percentage downregulation of IL-6 (IL-6) | Percentage downregulation of IL-17 (IL-17) | expansion of Treg cells (Treg cells) | prevention of GvHD development (in words) [2]
1 | CC(C)(C)c1ccc(Oc2ccc(N)cn2)cc1 [6-(4-tert-butylphenoxy)pyridin-3-amine/6-(4-tert-butylphenox] | 0.9 | 1.2 | 0.5 | 0.7 | 0.7 | 1.2 | 5.2 |  |  |  |  |  |  | 
2 | Cc1nc(Oc2ccc(-c3ccc(F)cc3)cc2)ccc1N [6-((4′-fluoro-[1,1′-biphenyl]-4-yl)oxy)-2-methylpyridin-3-amine] |  |  |  |  |  |  |  | 41% | 74% | 40% | 66% | 78% | 120% | 
3 | CC(C)(C)c1ccc(Oc2ccc(N)cn2)cc1 [DMSO/6-(4-tert-butylphenoxy)pyridin-3-amine] | 1.35 | 1.2 | 0.5 | 0.65 | 1.3 | 0.95 | 5.95 |  |  |  |  |  |  | 
4 | N#CC[C@H](C1CCCC1)n1cc(-c2ncnc3[nH]ccc23)cn1 [DMSO/Ruxolitinib, Ruxolitinib, reference compound] | 1.6 | 0.9 | 0.9 | 1.2 | 1.2 | 1.1 | 6.9 |  |  |  |  |  |  | 
5 | CNc1ccc(Oc2ccc(-c3cncs3)cc2)nc1 [N-methyl-6-(4-(thiazol-5-yl)phenoxy)pyridin-3-amine] |  |  |  |  |  |  |  | 38% |  |  | 80% | 85% |  | 
6 | Cyclosporin A [reference compound] |  |  |  |  |  |  |  |  |  |  |  |  |  | did not perform better than vehicle treated animals
